Consider four compounds from US12377063B2, “Combination therapies for managing cancer” (Emory University, priority 2019, dated 2025).

Holding throughout (format): cell-based
In test [1] the test system is leader cells. The experiment in a line: Lactate production after alexidine treatment. Particulars: alexidine treatment for 24 hours.
For test [2], the system named is p-PDHS293 in leader cells. The test can be described thus: p-PDHS293 after alexidine treatment, leader cells. Particulars: alexidine treatment for 24 hours. An excerpt: Alexidine Dihydrochloride Induces Metabolic Reprogramming of Leader Cells Via S293 Phosphorylation of PDH
(§1) Since alexidine inhibits active PDH in leaders and Bay-876 targets GLUT1, the combination of alexidine and Bay-876 to co-target these cellular subtypes, respectively, during collective invasion was examined. To quantitatively determine synergy a combination index analyses was used. […] Importantly, normal lung epithelial cells (HBEC, MRC5) had no synergy at low and moderate doses (FIG. 8A). The effects of Bay-876 plus alexidine on invasion were examined. […] It is also contemplated that one can co-target metabolically heterogeneous populations using the combination of the leader cell targeting agent, alexidine, and the GLUT1 targeting agent, BAY-876 or the glycolytic/PPP activity of followers and OXHOS-driven biology of the leaders in a manor illustrated in the table below.

Test [3] has as its system leader cells. The test can be described thus: Cell death in leader cells. Particulars: after 72 hours. An excerpt:
(§2) Compounds were screened, and it was discovered that most compounds effective at inhibiting lead cells were typically anti-metabolic agents that disrupt OXPHOS. One such compound, alexidine hydrochloride targets mitochondrial function. Leader cells are sensitive to mitochondria-targeting agents as a class.

In test [4] the test system is pPDHS293 in follower cells. The experiment in a line: pPDHS293 after alexidine treatment, follower cells.
In test [5] the test system is multiple lung and mixed leader:follower lines. The test can be described thus: Collective invasion of spheroids embedded in Matrigel. Particulars: alexidine alone.
Description: Brightfield representative images are shown. Solid lines designate outer perimeter. Scale bar=50 μm.
as §2, §1

A further test concerns follower/leader cells. Particulars: leaders vs followers; 72 hrs of treatment; FIG. 3D.
Test [6] relates to GLUT1 mRNA expression in followers. The test can be described thus: GLUT1 mRNA expression by qRT-PCR. Particulars: 24 hrs, FIG. 7C. As for the experimental part:
(§3) To determine how GLUT1 expression in followers could be regulated upstream, signaling alterations that might contribute to altered GLUT1 expression in leaders and followers were evaluated. YAP and TAZ are transcriptional co-activators of TEAD (Hippo signaling) and regulate GLUT1 expression. YAP/TEAD 1-4 members were interrogated. […] Cells were treated with the YAP/TEAD inhibitor, verteporfin, which has promising anti-tumor activity.

The next test relates to H1299 cells. The experiment in a line: Cell number / viability after verteporfin. Particulars: parental H1299 cells; 72 hours; FIG. 7D. As for the experimental part:
as §3

In a further test the test system is parental H1299 cells. The test can be described thus: Spheroid invasion assay, parental H1299. The settings on record: FIG. 7E. As for the experimental part: as §3

With `CCCCC(CC)CNC(=N)NC(=N)NCCCCCCNC(=N)NC(=N)NCC(CC)CCCC` (centres unmarked) [Alexidine, 1,1′-(hexane-1,6-diyl)bis(5-(2-ethylhexyl)biguanidine)], the lactate production entry in the test with leader cells [1] is recorded as “increased lactate production”. Further, in test [2], the p-PDHS293 level result is on record as “increased p-PDHS293”. The cell death result in the test with leader cells [3] is on record as “no significant amount of cell death”. Moreover, the “impact on pPDHS293” value in test [4] is on record as “no significant impact”. The “doses decreasing invasiveness relative to doses inducing cell death” value in [5] (earlier time points prior to effect on proliferation) is on record as “doses lower than those that induce cell death”. Moreover, the collective invasion entry in test [5] (multiple lung cell lines) is recorded as “dose-dependent inhibition”.
Regarding `CN(C)C(=N)N=C(N)N` [metformin], the “sensitivity of leaders to complex I inhibitors (proliferation)” value with follower/leader cells is reported as “increased sensitivity”.
On the same count and under the same terms, the entry for `C/C=C(\C)[C@H](O)[C@H](C)/C=C(C)/C=C/C/C(C)=C/Cc1nc(OC)c(OC)c(O)c1C` [piericidin, piericidin A] is “increased sensitivity”.
verteporfin: in [6], the “GLUT1 mRNA expression” value is “suppressed GLUT1 mRNA expression in followers in a dose-dependent manner”. The “proliferative properties (cell number)” value in the test with H1299 cells is recorded as “significantly reduced”. Besides, the “invasive properties (invasive area)” value with parental H1299 cells is reported as “significantly reduced”.
